Results on 31 molecules are retold here after US20220324865A1 (Bayer Aktiengesellschaft, priority 2018, published 2022).

SMILES strings stand for the structures.

The assay concerns the target T1, human EP3 receptor (Homo sapiens, UniProt P43115).
T1 construct: expressed in transfected cells; host or cells: CHO K1 (Chinese Hamster Ovary), stably co-transfected with Galpha16 and mitochondrial clytin
T1 sequence (P43115 1-390): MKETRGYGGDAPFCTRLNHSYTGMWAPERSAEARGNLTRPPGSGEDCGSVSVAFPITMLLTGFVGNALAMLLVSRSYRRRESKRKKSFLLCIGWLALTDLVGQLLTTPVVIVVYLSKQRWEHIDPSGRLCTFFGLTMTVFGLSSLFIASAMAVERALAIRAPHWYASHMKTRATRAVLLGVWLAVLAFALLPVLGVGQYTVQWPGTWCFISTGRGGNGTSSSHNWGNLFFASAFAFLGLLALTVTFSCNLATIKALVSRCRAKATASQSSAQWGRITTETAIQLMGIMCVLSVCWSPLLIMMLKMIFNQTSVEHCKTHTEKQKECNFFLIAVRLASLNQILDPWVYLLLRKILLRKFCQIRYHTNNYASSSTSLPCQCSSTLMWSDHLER
Kind of assay: Cellular in vitro assay for determining EP3 receptor activity (human EP3 cell line, sulprostone-stimulated calcium luminescence). In kind it is cell-based. Conditions: CHO cells expressing human EP3 and mitochondrial Clytin; antagonist mode, sulprostone at EC50; read-out: EP3 CHO mtCLY ANTAG IC50. A digest of the protocol:
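CHO K1 cells stably expressing human EP3 with Gα16 and mitochondrial Clytin, loaded overnight with coelenterazine. Compounds added 10 min before sulprostone at its EC50; antagonism read immediately as reduced calcium-driven luminescence, quadruplicate points.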
With `CC[C@@H](C)NC(=O)c1nn2cc(-c3ccc(C)c(C)c3)[nH]c(=O)c2c1C(C)C` [Example 1-140, N-[(2R)-Butan-2-yl]-6-(3,4-dimethylphenyl)-4-oxo-3-(propan-2-yl)-4,5-dihydropyrazolo[1,5-a]-pyrazine-2-carboxamide], the IC50 came to 1.95 nM.

Turning to `Cc1c(C(=O)NCc2cc[nH]n2)nn2c(C)c(-c3ccc4ccccc4c3)[nH]c(=O)c12` [Example 3-5, 3,7-Dimethyl-6-(naphthalen-2-yl)-4-oxo-N-[(1H-pyrazol-3-yl)methyl]-4,5-dihydropyrazolo[1,5-a]pyrazine-2-carboxamide], the IC50 was found to be 7 nM. Regarding `CC(C)(O)[C@@H](NC(=O)c1nn2cc(-c3ccc(Cl)c(Cl)c3)[nH]c(=O)c2c1C1CCC1)c1ccc(F)cc1` [6-568], the concentration for half-maximal inhibition (IC50) worked out at 1.05 nM.

Turning to `Cc1cc(-c2cn3nc(C(=O)N[C@@H](c4ccc(F)cc4)C(C)(C)O)c(C4CC4(F)F)c3c(=O)[nH]2)ccc1Cl` (stereo partly shown) [6-551], the IC50 is 1.7 nM. As to `Cc1ccc(-c2cn3nc(C(=O)N[C@@H](C)C4CC4)c(C4CC4(F)F)c3c(=O)[nH]2)cc1Cl` (stereo partly shown) [6-561], the IC50 amounted to 1.1 nM. As to `CC(C)(C)OC(=O)NCC(NC(=O)c1cc2c(=O)[nH]c(-c3ccc4cccnc4c3)cn2n1)c1ccc(F)cc1` (stereo not shown) [6-29], the IC50 was 2.27 nM. For the molecule `CC(CN1CCOCC1)NC(=O)c1nn2cc(-c3ccc4ccccc4c3)[nH]c(=O)c2c1C(F)(F)F` (single isomer, unassigned) [6-524], the half-inhibitory concentration (IC50) was 7 nM. As for `Cc1ccc(-c2cn3nc(C(=O)NC(C)CN4CCOCC4)c(C4CC4)c3c(=O)[nH]2)cc1C` (single isomer, unassigned) [6-451], the 50% inhibitory concentration (IC50) was 5.35 nM. With `O=C(N[C@H](CCO)c1ccc(F)cc1)c1cc2c(=O)[nH]c(-c3ccc4c(c3)COCC4)cn2n1` [Example 1-24, 6-(3,4-Dihydro-1H-isochromen-7-yl)-N-[(1R)-1-(4-fluorophenyl)-3-hydroxypropyl]-4-oxo-4,5-dihydropyrazolo[1,5-a]pyrazine-2-carboxamide], the half-maximal inhibitory concentration (IC50) came out at 7.3 nM.

`Cc1ccc(-c2[nH]c(=O)c3c(C4CC4)c(C(=O)N[C@@H](c4ccc(F)cc4)C(C)(C)O)nn3c2F)cc1Cl` [6-664]: the concentration for half-maximal inhibition (IC50) was determined as 5.25 nM. In the case of `CC(NC(=O)c1cc2c(=O)[nH]c(-c3ccc4cccnc4c3)cn2n1)c1ccc(F)c(F)c1` (stereo not shown) [6-28], the IC50 amounted to 3.9 nM.

In the case of `Cc1cc(-c2cn3nc(C(=O)NC(c4ccc(F)cc4)C4(O)CC4)c(C4CC4)c3c(=O)[nH]2)ccc1F` (single isomer, unassigned) [6-652], the 50% inhibitory concentration (IC50) stood at 10 nM. As to `CC(C)(O)[C@@H](NC(=O)c1nn2cc(-c3ccc4ccccc4c3)[nH]c(=O)c2c1C#N)c1ccc(F)cc1` [6-110], the concentration for half-maximal inhibition (IC50) was determined as 4 nM.

With `COC[C@@H](NC(=O)c1nn2cc(-c3ccc4c(c3)ncn4C)[nH]c(=O)c2c1C1CC1)c1ccccc1` [6-600], the IC50 is 2.3 nM.

With `Cc1cccc2ncc(-c3cn4nc(C(=O)NC(CN(C)C)c5ccccc5)c(C(C)C)c4c(=O)[nH]3)cc12` (stereo not shown) [Example 4-1, N-[2-(Dimethylamino)-1-phenylethyl]-3-isopropyl-6-(5-methyl-3-quinolyl)-4-oxo-5H-pyrazolo[1,5-a]pyrazine-2-carboxamide], the half-maximal inhibitory concentration (IC50) was 1.75 nM. As for `CC(C)(O)[C@@H](NC(=O)c1nn2cc(-c3ccc4ccccc4c3)[nH]c(=O)c2c1C(F)(F)F)c1ccc(F)cc1` [Example 1-19, N-[(1S)-1-(4-Fluorophenyl)-2-hydroxy-2-methylpropyl]-6-(naphthalen-2-yl)-4-oxo-3-(trifluoromethyl)-4,5-dihydropyrazolo[1,5-a]pyrazine-2-carboxamide], the half-inhibitory concentration (IC50) is 0.705 nM. Take `Cc1cccc2ncc(-c3cn4nc(C(=O)NC5CCOc6ccccc65)c(C(C)C)c4c(=O)[nH]3)cc12` (stereo not shown) [Example 4-65, N-(3,4-Dihydro-2H-chromen-4-yl)-3-isopropyl-6-(5-methylquinolin-3-yl)-4-oxo-4,5-dihydropyrazolo[1,5-a]pyrazine-2-carboxamide]: the IC50 was determined as 1.15 nM. Consider `Cc1ccc(-c2cn3nc(C(=O)N[C@H](CCO)c4ccc(F)cc4)c(Cl)c3c(=O)[nH]2)cc1C` [Example 1-63, 3-Chloro-6-(3,4-dimethylphenyl)-N-[(1R)-1-(4-fluorophenyl)-3-hydroxypropyl]-4-oxo-4,5-dihydropyrazolo[1,5-a]pyrazine-2-carboxamide], for which the IC50 stood at 0.443 nM. Take `Cc1ccc(-c2cn3nc(C(=O)N[C@@H](c4ccc(F)cc4)C(F)(F)CO)c(C(F)(F)C(F)(F)F)c3c(=O)[nH]2)cc1Cl` [6-487]: the IC50 was 0.67 nM. Consider `COc1ccc([C@@H](C)NC(=O)c2cc3c(=O)[nH]c(-c4ccc5c(c4F)OCCO5)c(F)n3n2)cn1` [Example 1-111, 7-Fluoro-6-(5-fluoro-2,3-dihydro-1,4-benzodioxin-6-yl)-N-[(1R)-1-(6-methoxypyridin-3-yl)ethyl]-4-oxo-4,5-dihydropyrazolo[1,5-a]pyrazine-2-carboxamide], for which the IC50 was determined as 8.8 nM. In the case of `Cc1ccc(-c2cn3nc(C(=O)N[C@H]4c5ccccc5C[C@H]4O)c(C(F)(F)F)c3c(=O)[nH]2)cc1Cl` [6-185], the 50% inhibitory concentration (IC50) was determined as 2.35 nM. For `COC[C@H](NC(=O)c1cc2c(=O)[nH]c(-c3ccc(C)c(C)c3)cn2n1)c1ccccc1` [6-50], the half-inhibitory concentration (IC50) turned out to be 1.3 nM. Take `CC(C)(O)[C@@H](NC(=O)c1cc2c(=O)[nH]c(-c3ccc4c(c3)CCCC4)cn2n1)c1ccc(F)cc1` [Example 1-133, N-[(1S)-1-(4-Fluorophenyl)-2-hydroxy-2-methylpropyl]-4-oxo-6-(5,6,7,8-tetrahydronaphthalen-2-yl)-4,5-dihydropyrazolo[1,5-a]pyrazine-2-carboxamide]: the IC50 amounted to 2.8 nM. For the molecule `COc1ccc(C(C)NC(=O)c2nn3c(C)c(-c4ccc5ccccc5c4)[nH]c(=O)c3c2C)cc1F` (stereo not shown) [Example 3-74, N-[1-(3-Fluoro-4-methoxyphenyl)ethyl]-3,7-dimethyl-6-(2-naphthyl)-4-oxo-5H-pyrazolo[1,5-a]pyrazine-2-carboxamide], the half-inhibitory concentration (IC50) was found to be 4.8 nM. Take `CC(C)c1c(C(=O)N[C@@H](C)C2CC2)nn2cc(-c3ccc(Cl)c(F)c3)[nH]c(=O)c12` [6-539]: the 50% inhibitory concentration (IC50) was found to be 3.3 nM. In the case of `Cc1cccc2ncc(-c3cn4nc(C(=O)NC(C)c5ccc(S(N)(=O)=O)cc5)c(C(C)C)c4c(=O)[nH]3)cc12` (stereo not shown) [Example 4-53, 3-Isopropyl-6-(5-methyl-3-quinolyl)-4-oxo-N-[1-(4-sulfamoylphenyl)ethyl]-5H-pyrazolo[1,5-a]pyrazine-2-carboxamide] it was 1.1 nM. Consider `Cc1ccc(-c2cn3nc(C(=O)NC(C)C4CCC4)c(C(F)(F)F)c3c(=O)[nH]2)cc1Cl` (racemic) [6-193], for which the IC50 was determined as 4.05 nM. On to `Cc1c(C(=O)NC2(c3ccc(F)cc3)CC2)nn2cc(-c3ccc4ccccc4c3)[nH]c(=O)c12` [6-71], for which the IC50 amounted to 2.85 nM. Regarding `CC(C)c1c(C(=O)N[C@@H](C)c2ccc(F)cc2)nn2cc(-c3ccc4ccccc4c3)[nH]c(=O)c12` [Example 1-9, N-[(1S)-1-(4-Fluorophenyl)ethyl]-6-(naphthalen-2-yl)-4-oxo-3-(propan-2-yl)-4,5-dihydropyrazolo-[1,5-a]pyrazine-2-carboxamide], the IC50 came to 2.37 nM. In the case of `O=C(NC1(c2ccc(F)cc2)CN(CC(F)(F)F)C1)c1nn2cc(-c3ccc(Cl)c(F)c3)[nH]c(=O)c2c1C1CC1` [6-103], the IC50 was found to be 0.74 nM.

Take `O=C(NC1(c2ccc(F)cc2)CN(C2CC2)C1)c1nn2cc(-c3ccc(Cl)c(F)c3)[nH]c(=O)c2c1C1CC1` [6-104]: the half-maximal inhibitory concentration (IC50) was found to be 1.25 nM.

One may read the IC50 as the concentration needed to halve the response being measured.
